Source: US10370378B2, “Treatment of sleep disorders” (Evotec International GmbH, priority 2007, dated 2019)
Values joined by “and” are separate entries in the source; they are usually repeats but may differ in a detail not shown here. Equal entries are not always repeated.

What was measured:
[1] = biological target: T1, α5β2γ2 GABAA receptors (Rattus norvegicus, UniProt P18508+P19969); assay: Stimulation of currents elicited by GABA (EC3-5), two-electrode voltage clamp, receptors expressed in Xenopus oocytes; type: cell-based; settings: 1 μM; different batches of oocytes, n=5 each
T1 construct: expressed in transfected cells; host or cells: Xenopus laevis oocytes, cRNA microinjection
T1 sequence (P19969 32-464 limits assumed): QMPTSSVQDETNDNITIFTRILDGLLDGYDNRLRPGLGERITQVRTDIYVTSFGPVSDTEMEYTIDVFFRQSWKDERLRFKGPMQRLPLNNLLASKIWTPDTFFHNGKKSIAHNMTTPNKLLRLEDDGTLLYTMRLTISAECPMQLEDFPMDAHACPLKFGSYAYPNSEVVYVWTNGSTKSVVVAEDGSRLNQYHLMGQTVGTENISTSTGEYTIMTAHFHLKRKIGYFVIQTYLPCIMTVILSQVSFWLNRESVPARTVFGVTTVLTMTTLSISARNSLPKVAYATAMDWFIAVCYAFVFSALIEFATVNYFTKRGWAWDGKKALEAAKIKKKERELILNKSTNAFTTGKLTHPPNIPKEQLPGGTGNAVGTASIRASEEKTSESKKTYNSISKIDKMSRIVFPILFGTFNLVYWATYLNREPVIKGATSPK
T1 sequence (P63138 25-474 partner limits assumed): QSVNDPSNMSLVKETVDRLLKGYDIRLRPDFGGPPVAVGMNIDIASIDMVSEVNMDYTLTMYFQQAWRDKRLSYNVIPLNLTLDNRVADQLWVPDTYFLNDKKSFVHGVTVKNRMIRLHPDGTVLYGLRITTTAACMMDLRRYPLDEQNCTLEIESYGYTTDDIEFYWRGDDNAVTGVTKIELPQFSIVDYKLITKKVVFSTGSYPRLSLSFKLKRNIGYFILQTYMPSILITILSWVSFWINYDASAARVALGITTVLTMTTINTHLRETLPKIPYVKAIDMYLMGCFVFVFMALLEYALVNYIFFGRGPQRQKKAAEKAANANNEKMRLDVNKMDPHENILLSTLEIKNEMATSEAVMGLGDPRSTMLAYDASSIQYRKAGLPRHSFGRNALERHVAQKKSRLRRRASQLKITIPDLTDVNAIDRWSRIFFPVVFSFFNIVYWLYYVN
T1 sequence (P18508 39-466): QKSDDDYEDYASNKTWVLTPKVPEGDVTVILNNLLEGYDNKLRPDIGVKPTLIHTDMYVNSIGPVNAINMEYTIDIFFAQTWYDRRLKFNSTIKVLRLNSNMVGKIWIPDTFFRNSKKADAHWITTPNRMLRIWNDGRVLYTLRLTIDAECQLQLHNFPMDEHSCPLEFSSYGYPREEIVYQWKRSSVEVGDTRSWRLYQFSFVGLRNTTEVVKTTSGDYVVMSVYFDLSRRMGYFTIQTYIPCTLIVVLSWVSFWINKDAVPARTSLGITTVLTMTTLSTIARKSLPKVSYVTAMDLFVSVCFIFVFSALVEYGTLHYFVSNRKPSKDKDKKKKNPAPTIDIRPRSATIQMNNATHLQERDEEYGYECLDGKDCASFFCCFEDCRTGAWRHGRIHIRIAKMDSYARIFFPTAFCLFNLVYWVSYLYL
Source text: (§1) 7-Chloro-3-(5-dimethylaminomethyl-[1,2,4]oxadiazol-3-yl)-5-methyl-4,5-dihydro-imidazol[1,5,-a][1,4]benzodiazepine-6-one was used to test the effects of the compound of formula (II): […]
(§2) Similar procedures were chosen as for the investigation of other GABAA receptor subunit specific substances (e.g., Baur et al., 2005; Mol. Pharmacol. 68, 787-792).
(§3) Lobes of the ovary containing the follicles were obtained by surgical procedures from female Xenopus laevis. Follicles were singled out using a platinum loop. Fifty nL of cRNA solution at a ratio of αx:β2:γ2 of 1:1:5 (3.3-10 nM αx (x=1, 2, 3, 5); 3.3-10 nM β2; 16.7-50 nM γ2) (Boileau et al., 2002; Neuropharmacology 43, 695-700) were microinjected into Xenopus follicles. Several hours after microinjection the follicles were freed of follicular layers and adhering connective tissue by a collagenase/hypertonic shock procedure (Sigel, 1987; J. Physiol. (Land) 386, 73-90). Oocytes were kept at constant 18° C. until measurement (1-4 days) in a modified Barth solution (88 mM NaCl, 1 mM KCl, 2.4 mM NaHCO3, 10 mM Hepes-NaOH (pH 7.5), 0.82 mM MgSO4×7H2O, 0.34 mM Ca(NO3)2×4H2O, 0.41 mM CaCl2×2H2O, 100 U Penicillin/mL, 100 μg Streptomycin/mL, sterile filtered).
(§4) Currents were measured using a home-built amplifier in combination with a xy-recorder or were digitized using a MacLab/200 (AD Instruments) and stored on a computer. Xenopus oocytes were voltage clamped using the two-electrode voltage clamp technique (electrode resistance about 0.8 MΩ) at −80 mV. […]
(§5) GABA was applied for 20-50 seconds without or in combination with other drugs and a washout period of 4 minutes was allowed to ensure full recovery from desensitization, which was experimentally determined. […]
(§6) Data is given as mean±SD, except in the figures where data is shown for clarity as mean±SEM. Current stimulation was calculated as follows: stimulation (%)=((I(GABA+modulator)−I(GABA))/I(GABA))×100%, where I is the current amplitude. […]
(§7) Current stimulation by diazepam was determined in each batch of oocytes as follows. […]

[2] = biological target: T2, α2β2γ2 GABAA receptors (Rattus norvegicus, UniProt P18508+P23576); assay: as above; type: cell-based; settings: 1 μM; different batches of oocytes, n=5 each
T2 construct: expressed in transfected cells; host or cells: Xenopus laevis oocytes, cRNA microinjection
T2 sequence (P23576 29-451): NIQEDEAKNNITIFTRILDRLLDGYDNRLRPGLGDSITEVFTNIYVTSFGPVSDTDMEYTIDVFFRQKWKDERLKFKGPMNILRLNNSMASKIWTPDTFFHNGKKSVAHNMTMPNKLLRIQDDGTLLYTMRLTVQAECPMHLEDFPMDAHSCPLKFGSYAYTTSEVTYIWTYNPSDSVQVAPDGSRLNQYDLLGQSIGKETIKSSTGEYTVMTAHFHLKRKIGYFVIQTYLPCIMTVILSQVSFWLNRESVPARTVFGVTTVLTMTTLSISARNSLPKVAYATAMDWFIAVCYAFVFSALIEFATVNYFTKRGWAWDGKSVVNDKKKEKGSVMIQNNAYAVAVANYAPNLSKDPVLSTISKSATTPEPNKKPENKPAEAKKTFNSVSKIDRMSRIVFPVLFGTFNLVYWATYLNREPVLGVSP
T2 sequence (P63138 25-474 partner limits assumed): as the sequence (P63138 25-474 partner limits assumed) above
T2 sequence (P18508 39-466): as the sequence (P18508 39-466) above
Source text: as §1, §2, §3, §4, §5, §6, §7

[3] = biological target: T3, α3β2γ2 GABAA receptors (Rattus norvegicus, UniProt P18508+P20236); assay: as above; type: cell-based; settings: 1 μM; different batches of oocytes, n=5 each
T3 construct: expressed in transfected cells; host or cells: Xenopus laevis oocytes, cRNA microinjection
T3 sequence (P20236 29-493): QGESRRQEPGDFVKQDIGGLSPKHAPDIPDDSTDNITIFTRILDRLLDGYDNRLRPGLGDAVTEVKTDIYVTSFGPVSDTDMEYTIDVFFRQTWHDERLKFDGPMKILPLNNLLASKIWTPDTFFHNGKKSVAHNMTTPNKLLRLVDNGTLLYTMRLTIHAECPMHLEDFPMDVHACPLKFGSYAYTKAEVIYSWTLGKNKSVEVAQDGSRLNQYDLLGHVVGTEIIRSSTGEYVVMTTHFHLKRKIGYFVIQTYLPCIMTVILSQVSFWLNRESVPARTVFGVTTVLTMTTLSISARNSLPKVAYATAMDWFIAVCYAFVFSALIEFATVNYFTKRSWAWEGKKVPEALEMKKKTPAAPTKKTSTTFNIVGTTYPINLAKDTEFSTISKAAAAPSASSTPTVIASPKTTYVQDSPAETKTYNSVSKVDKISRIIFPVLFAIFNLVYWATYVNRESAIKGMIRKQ
T3 sequence (P63138 25-474 partner limits assumed): as the sequence (P63138 25-474 partner limits assumed) above
T3 sequence (P18508 39-466): as the sequence (P18508 39-466) above
Source text: as §1, §2, §3, §4, §5, §6, §7

[4] = biological target: T4, α1β2γ2 GABAA receptors (Rattus norvegicus, UniProt P18508+P62813); assay: as above; type: cell-based
T4 construct: expressed in transfected cells; host or cells: Xenopus laevis oocytes, cRNA microinjection
T4 sequence (P62813 28-455): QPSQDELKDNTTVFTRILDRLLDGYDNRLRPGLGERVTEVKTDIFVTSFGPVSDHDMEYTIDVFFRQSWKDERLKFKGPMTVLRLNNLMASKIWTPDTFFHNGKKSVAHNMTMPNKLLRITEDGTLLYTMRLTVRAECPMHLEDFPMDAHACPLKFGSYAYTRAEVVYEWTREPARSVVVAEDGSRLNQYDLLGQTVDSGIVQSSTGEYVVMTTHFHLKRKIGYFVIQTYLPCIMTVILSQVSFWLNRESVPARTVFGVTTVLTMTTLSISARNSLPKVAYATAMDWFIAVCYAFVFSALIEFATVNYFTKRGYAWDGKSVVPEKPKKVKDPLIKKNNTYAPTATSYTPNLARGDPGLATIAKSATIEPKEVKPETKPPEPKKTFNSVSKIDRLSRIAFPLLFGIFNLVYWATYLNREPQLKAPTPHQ
T4 sequence (P63138 25-474 partner limits assumed): as the sequence (P63138 25-474 partner limits assumed) above
T4 sequence (P18508 39-466): as the sequence (P18508 39-466) above
Source text: as §1, §2, §3
Currents were measured using a home-built amplifier in combination with a xy-recorder or were digitized using a MacLab/200 (AD Instruments) and stored on a computer. Xenopus oocytes were voltage clamped using the two-electrode voltage clamp technique (electrode resistance about 0.8 MΩ) at −80 mV. The medium contained 90 mM NaCl, 1 mM KCl, 1 mM MgCl2, 1 mM CaCl2, 10 mM Na-Hepes (pH 7.4) and 0.5% DMSO.
GABA was applied for 20-50 seconds without or in combination with other drugs and a washout period of 4 minutes was allowed to ensure full recovery from desensitization, which was experimentally determined. The perfusion solution (6 mL/min) was applied through a glass capillary with an inner diameter of 1.35 mm, the mouth of which was placed about 0.4 mm from the surface of the oocyte. The rate of solution change under our conditions has been estimated 70% within less than 0.5 s (Sigel et al., 1990; Neuron 5, 703-711). The entire perfusion system and the assay chamber were cleaned between drug applications by washing with DMSO.
Data is given as mean±SD, except in the figures where data is shown for clarity as mean±SEM. Current stimulation was calculated as follows: stimulation (%)=((I(GABA+modulator)−I(GABA))/I(GABA))×100%, where I is the current amplitude. Where indicated, the stimulation was standardized to the stimulation by 1 μM diazepam (100%). To obtain FIGS. 1-4, values for current stimulation obtained at a given concentration of modulator at a given subunit combination were averaged. The data points were fitted with the equation stimulation=efficacy/(1+(potency/concentration of modulator)). The values given in the Tables (Summary) are obtained by fitting individual curves and subsequently averaging efficacy and potency. […]
GABA was then applied in combination with various concentrations of the compound of formula (II) between 0.3 nM and 3,000 nM to produce a cumulative concentration response curve. […] In each batch of oocytes the stimulation by 1 μM diazepam was determined in five oocytes, extent of stimulation averaged and defined as 100%. Where indicated, stimulation by the compound of formula (II) in each batch of oocytes was expressed as a percentage of this value in the corresponding batch. […]

[5] = elderly; cited from earlier work
[6] = test system: GABAA receptors; settings: 20 mg, PET, in man; cited from earlier work

For `CN1C(=O)CN=C(c2ccccc2)c2cc(Cl)ccc21` [diazepam], the Current stimulation [1] was 237±97% and 160±4%, the Current stimulation [2] was 264±61% and 280±71% and 318±62% and the Current stimulation [3] was 417±85% and 417±144%. The Current stimulation ([4]; 1 μM, different batches of oocytes, n=5 each) was 223±28% and 178±20%.

For `CN1CCN(C(=O)O[C@H]2c3nccnc3C(=O)N2c2ccc(Cl)cn2)CC1` [eszopiclone], the half-life [5] is given as 9 h.

In the case of `Cc1ccc(-c2nc3ccc(C)cn3c2CC(=O)N(C)C)cc1` [zolpidem], the “Receptor subtype affinity in comparison to α2β2γ2, α3β2γ2 and α5β2γ2” value [4] is listed as “higher affinity at α1β2γ2 GABAA receptors”, the “Intrinsic activity / type of allosteric modulation” value ([4]; GABAA receptor benzodiazepine site) is listed as “full agonist” and the receptor occupancy [6] is listed as “about 20%”.
